Drawing on patent publication US8389513B2, “2-amino-5,5-difluoro-5,6-dihydro-4H-[1,3]oxazin-4-yl)-phenyl]-amides” (Hoffmann-La Roche Inc., priority 2009, dated 2013), this text covers IC50 for 19 compounds.

One assay deals with T1, BACE2 (Rattus norvegicus, UniProt Q6IE75).
T1 construct: endogenous cellular BACE2 in the Ins1e rat cell line; endogenous in cells; host or cells: INS-TMEM27 (INS1e-derived rat cell line with TetOn-inducible full-length hTMEM27)
T1 sequence (Q6IE75 63-514): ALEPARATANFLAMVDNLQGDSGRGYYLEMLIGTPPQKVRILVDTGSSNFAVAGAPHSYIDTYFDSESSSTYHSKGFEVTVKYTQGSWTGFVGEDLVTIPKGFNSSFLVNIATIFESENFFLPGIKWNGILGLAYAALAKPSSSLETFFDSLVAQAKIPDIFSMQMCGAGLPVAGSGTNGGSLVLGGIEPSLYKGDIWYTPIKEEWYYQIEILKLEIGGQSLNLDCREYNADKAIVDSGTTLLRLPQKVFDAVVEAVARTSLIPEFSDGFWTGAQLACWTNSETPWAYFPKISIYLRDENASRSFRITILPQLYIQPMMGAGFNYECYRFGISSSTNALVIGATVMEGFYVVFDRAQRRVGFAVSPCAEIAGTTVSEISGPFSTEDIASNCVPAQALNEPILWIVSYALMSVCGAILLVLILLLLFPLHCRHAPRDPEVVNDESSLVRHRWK
Nature of the assay: Assay for BACE inhibition by measuring cellular TMEM27 cleavage. The assay is classed as cell-based. Particulars: INS-TMEM27 cells (INS1e-derived); shed TMEM27 by ELISA; read-out: BACE2 cell act. IC50. From the text: Assay for BACE Inhibition by Measuring Cellular TMEM27 Cleavage:
The assay uses the principle of inhibition of human TMEM27 cleavage by endogenous cellular BACE2 in the Ins1e rat cell line and shedding from the cell surface into the culture medium, followed by detection in an ELISA assay. Inhibition of BACE2 prevents the cleavage and shedding in a dose-dependent manner.
The stable cell line “INS-TMEM27” represents an INS1e-derived cell line with inducible expression (using the TetOn system) of full-length hTMEM27 in a doxycycline-dependent manner. The cells are cultured throughout the experiment in RPMI1640+Glutamax (Invitrogen) Penicillin/Streptomycin, 10% Fetal bovine serum, […] pyruvate, […] beta-mercatptoethanol, 100 micrograms/ml G418 and 100 microgram/ml hygromycin and are grown inadherent culture at 37° C. in a standard CO2 cell culture incubator. INS-TMEM27 cells are seeded in 96-well plates. After 2 days in culture, BACE2 inhibitor is added in a range of concentrations as required by the assay and after a further two hours, doxycycline is added to a final concentration of 500 ng/ml. The cells are incubated for a further 46 hours and the supernatant harvested for detection of shed TMEM27.
An ELISA assay (using a pair of mouse anti-human-TMEM27 antibodies, raised against the extracellular domain of TMEM27) is used for detection of TMEM27 in the culture medium. An EC50 for BACE2 inhibition is calculated using the ELISA readout for each inhibitor concentration with standard curve-fitting software such as XLFit for the Excel spreadsheet program.
(In general: ELISA stands for enzyme-linked immunosorbent assay.)

The next assay deals with T2, BACE1 (Homo sapiens, UniProt P56817).
T2 construct: Human HEK293 cells which are stably transfected with a vector expressing a cDNA of the human APP wt gene (APP695); endogenous in cells; host or cells: HEK293 stably transfected with human APP695 wt
T2 sequence (P56817 46-501): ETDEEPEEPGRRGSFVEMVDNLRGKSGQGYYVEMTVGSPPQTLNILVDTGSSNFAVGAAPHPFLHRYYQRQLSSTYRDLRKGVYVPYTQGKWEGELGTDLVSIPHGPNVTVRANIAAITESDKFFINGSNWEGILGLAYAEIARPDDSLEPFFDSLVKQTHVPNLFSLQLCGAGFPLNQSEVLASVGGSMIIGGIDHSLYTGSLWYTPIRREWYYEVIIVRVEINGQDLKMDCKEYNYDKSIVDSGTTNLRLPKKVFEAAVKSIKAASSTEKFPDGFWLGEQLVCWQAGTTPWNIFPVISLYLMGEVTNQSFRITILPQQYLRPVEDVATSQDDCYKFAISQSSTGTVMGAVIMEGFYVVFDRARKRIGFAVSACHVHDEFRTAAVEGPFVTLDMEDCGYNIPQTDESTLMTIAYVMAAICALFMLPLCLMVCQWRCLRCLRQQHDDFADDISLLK
Kind of assay: Cellular Aβ-lowering assay (Aβ40 ELISA). The assay is classed as cell-based. Particulars: HEK293 cells stably expressing human APP695; Aβ40 in culture supernatant; read-out: BACE1 cell act. Aβ40 IC50. On the procedure: Cellular Aβ-Lowering Assay:
Human HEK293 cells which are stably transfected with a vector expressing a cDNA of the human APP wt gene (APP695) were used to assess the potency of the compounds in a cellular assay. The cells were seeded in 96-well microtiter plates in cell culture medium (Iscove, plus 10% (v/v) fetal bovine serum, glutamine, penicillin/streptomycin) to about 80% confluence and the compounds were added at a 10× concentration in 1/10 volume of medium without FCS containing 8% DMSO (final concentration of DMSO was kept at 0.8% v/v). After 18-20 hrs incubation at 37° C. and 5% CO2 in a humidified incubator the culture supernatant was harvested for the determination of Aβ40 concentrations. […] Subsequently the wells of the microtiter plate were washed extensively with Tris-buffered saline containing 0.05% Tween 20 and the assay was developed with tetramethylbenzidine/H2O2 in citric acid buffer. After stopping the reaction with one volume 1 NH2SO4 the reaction was measured in an ELISA reader at 450 nm wavelength. The concentrations of Aβ in the culture supernatants were calculated from a standard curve obtained with known amounts of pure Aβ peptide.

In general, IC50 refers to the midpoint of a concentration-inhibition curve. For the compound `C[C@]1(c2cc(NC(=O)c3ncccc3F)ccc2F)N=C(N)OCC1(F)F` [Example 10, 3-Fluoro-pyridine-2-carboxylic acid [3-((R)-2-amino-5,5-difluoro-4-methyl-5,6-dihydro-4H-[1,3]oxazin-4-yl)-4-fluoro-phenyl]-amide], the values for the IC50 at BACE2 and at BACE1 were 52 nM and 87 nM, respectively.

For `Cc1nc(C(=O)Nc2ccc(F)c([C@@]3(C)N=C(N)OCC3(F)F)c2)c(C)o1` [Example 59, 2,5-Dimethyl-oxazole-4-carboxylic acid [3-((R)-2-amino-5,5-difluoro-4-methyl-5,6-dihydro-4H-[1,3]oxazin-4-yl)-4-fluoro-phenyl]-amide], the figures for the IC50 at BACE2 and at BACE1 were 97 nM and 43 nM, respectively.

Take `CC1(C)OC(N)=N[C@](C)(c2cc(NC(=O)c3ncc(Cl)cn3)ccc2F)C1(F)F` [Example 32, 5-Chloro-pyrimidine-2-carboxylic acid [3-((R)-2-amino-5,5-difluoro-4,6,6-trimethyl-5,6-dihydro-4H-[1,3]oxazin-4-yl)-4-fluoro-phenyl]-amide]: the figures for the IC50 on BACE2 and at BACE1 were 20 nM and 16 nM, respectively.

For `C[C@]1(c2cc(NC(=O)c3ncccc3Cl)ccc2F)N=C(N)OCC1(F)F` [Example 3, 3-Chloro-pyridine-2-carboxylic acid [3-((R)-2-amino-5,5-difluoro-4-methyl-5,6-dihydro-4H-[1,3]oxazin-4-yl)-4-fluoro-phenyl]-amide], the IC50 amounted to 52 nM at BACE2 and 87 nM on BACE1.

Consider `Cc1cn[nH]c1C(=O)Nc1ccc(F)c([C@@]2(C)N=C(N)OCC2(F)F)c1` [Example 66, 4-Methyl-2H-pyrazole-3-carboxylic acid [3-((R)-2-amino-5,5-difluoro-4-methyl-5,6-dihydro-4H-[1,3]oxazin-4-yl)-4-fluoro-phenyl]-amide], for which the IC50 on BACE2 is 465 nM; at BACE1, 622 nM.

Take `C[C@]1(c2cc(NC(=O)c3ncc(C(F)(F)F)cn3)ccc2F)N=C(N)OCC1(F)F` [Example 16, 5-Trifluoromethyl-pyrimidine-2-carboxylic acid [3-((R)-2-amino-5,5-difluoro-4-methyl-5,6-dihydro-4H-[1,3]oxazin-4-yl)-4-fluoro-phenyl]-amide]: the IC50 on BACE2 stood at 1540 nM; on BACE1, 91 nM.

Regarding `CC1(C)OC(N)=N[C@](C)(c2cc(NC(=O)c3ncc(Cl)cc3Cl)ccc2F)C1(F)F` [Example 23, 3,5-Dichloro-pyridine-2-carboxylic acid [3-((R)-2-amino-5,5-difluoro-4,6,6-trimethyl-5,6-dihydro-4H-[1,3]oxazin-4-yl)-4-fluoro-phenyl]-amide], the IC50 on BACE2 was 66 nM; on BACE1, 11 nM.

`Cc1cnc(C(=O)Nc2ccc(F)c([C@@]3(C)N=C(N)OC(C)(C)C3(F)F)c2)cn1` [Example 34, 5-Methyl-pyrazine-2-carboxylic acid [3-((R)-2-amino-5,5-difluoro-4,6,6-trimethyl-5,6-dihydro-4H-[1,3]oxazin-4-yl)-4-fluoro-phenyl]-amide]: the results for the IC50 on BACE2 and at BACE1 were 3580 nM and 43 nM, respectively.

Consider `C[C@]1(c2cc(NC(=O)c3ccc(Cl)cn3)ccc2Cl)N=C(N)OCC1(F)F` [Example 50, 5-Chloro-pyridine-2-carboxylic acid [3-((R)-2-amino-5,5-difluoro-4-methyl-5,6-dihydro-4H-[1,3]oxazin-4-yl)-4-chloro-phenyl]-amide], for which the IC50 on BACE2 worked out at 24 nM; at BACE1, 17 nM.

For the compound `CC1(C)OC(N)=N[C@](C)(c2cc(NC(=O)c3ccc(OCF)cn3)ccc2F)C1(F)F` [Example 26, 5-Fluoromethoxy-pyridine-2-carboxylic acid [3-((R)-2-amino-5,5-difluoro-4,6,6-trimethyl-5,6-dihydro-4H-[1,3]oxazin-4-yl)-4-fluoro-phenyl]-amide], the values for the IC50 at BACE2 and on BACE1 were 761 nM and 30 nM, respectively.

On to `C[C@]1(c2cc(NC(=O)c3ccc(F)cn3)ccc2F)N=C(N)OCC1(F)F` [Example 2, 5-Fluoro-pyridine-2-carboxylic acid [3-((R)-2-amino-5,5-difluoro-4-methyl-5,6-dihydro-4H-[1,3]oxazin-4-yl)-4-fluoro-phenyl]-amide], for which, at BACE2, the IC50 came out at 56 nM.

As to `C[C@]1(c2cccc(NC(=O)c3ccc(C#N)cn3)c2)N=C(N)OCC1(F)F` [Example 53, 5-Cyano-pyridine-2-carboxylic acid [3-((R)-2-amino-5,5-difluoro-4-methyl-5,6-dihydro-4H-[1,3]oxazin-4-yl)-phenyl]-amide], the IC50 at BACE2 was determined as 349 nM; at BACE1 it was 13 nM.

Regarding `CC1(C)OC(N)=N[C@](C)(c2cc(NC(=O)c3ccc(OCC(F)(F)F)cn3)ccc2F)C1(F)F` [Example 29, 5-(2,2,2-Trifluoro-ethoxy)-pyridine-2-carboxylic acid [3-((R)-2-amino-5,5-difluoro-4,6,6-trimethyl-5,6-dihydro-4H-[1,3]oxazin-4-yl)-4-fluoro-phenyl]-amide], the IC50 at BACE2 is 44300 nM; at BACE1 it was 140 nM.

For the compound `CC1(C)OC(N)=N[C@](C)(c2cc(NC(=O)c3ccc(C(F)(F)F)cn3)ccc2F)C1(F)F` [Example 25, 5-Trifluoromethyl-pyridine-2-carboxylic acid [3-((R)-2-amino-5,5-difluoro-4,6,6-trimethyl-5,6-dihydro-4H-[1,3]oxazin-4-yl)-4-fluoro-phenyl]-amide], the IC50 on BACE2 was determined as 2250 nM; at BACE1, 25 nM.

Consider `C[C@]1(c2cc(NC(=O)c3ccn(C(F)F)n3)ccc2F)N=C(N)OCC1(F)F` [Example 64, 1-Difluoromethyl-1H-pyrazole-3-carboxylic acid [3-((R)-2-amino-5,5-difluoro-4-methyl-5,6-dihydro-4H-[1,3]oxazin-4-yl)-4-fluoro-phenyl]-amide], for which the IC50 at BACE2 was found to be 13 nM.

On to `C[C@]1(c2cc(NC(=O)c3ccc(C#N)cn3)cc(F)c2F)N=C(N)OCC1(F)F` [Example 49, 5-Cyano-pyridine-2-carboxylic acid [3-((R)-2-amino-5,5-difluoro-4-methyl-5,6-dihydro-4H-[1,3]oxazin-4-yl)-4,5-difluoro-phenyl]-amide], for which the IC50 at BACE2 was 151 nM; at BACE1, 26 nM.

As to `C[C@]1(c2cc(NC(=O)C3(C(F)(F)F)CC3)ccc2F)N=C(N)OCC1(F)F` [Example 75, 1-Trifluoromethyl-cyclopropanecarboxylic acid [3-((R)-2-amino-5,5-difluoro-4-methyl-5,6-dihydro-4H-[1,3]oxazin-4-yl)-4-fluoro-phenyl]-amide], the results for the IC50 on BACE2 and at BACE1 were 1010 nM and 1490 nM, respectively.

For `C[C@]1(c2cc(NC(=O)c3ccc(OCF)cn3)ccc2F)N=C(N)OCC1(F)F` [Example 42, 5-Fluoromethoxy-pyridine-2-carboxylic acid [3-((R)-2-amino-5,5-difluoro-4-methyl-5,6-dihydro-4H-[1,3]oxazin-4-yl)-4-fluoro-phenyl]-amide], the IC50 at BACE2 stood at 300 nM; on BACE1, 29 nM.

Regarding `C[C@]1(c2cc(NC(=O)c3ccccn3)ccc2F)N=C(N)OCC1(F)F` [Example 9, Pyridine-2-carboxylic acid [3-((R)-2-amino-5,5-difluoro-4-methyl-5,6-dihydro-4H-[1,3]oxazin-4-yl)-4-fluoro-phenyl]-amide], the IC50 at BACE2 was found to be 82 nM.
